Values quoted from earlier work in patent US20210154215A1, “Antifungal Cuticle Oil Composition” (Zenvision Pharma LLP, priority 2018, published 2021).

Solubility in water	Solubility in propylene glycol (propylene glycol)	SMILES	Solubility in ethanol	Solubility in methanol (methanol)	Solubility in methylene chloride (methylene chloride)
practically insoluble	–	C=C1CCN([C@H](C)[C@](O)(Cn2cncn2)c2ccc(F)cc2F)CC1 [Efinaconazole, (2R,3R)-2-(2,4-difluorophenyl)-3-(4-methylenepiperidin-1yl)-1-(1H-1,2,4-triazol-1-yl)butan-2ol]	–	–	–
slightly soluble	freely soluble	OB1OCc2cc(F)ccc21 [Tavaborole, 5-fluoro-1,3-dihydro-1-hydroxy-2,1-benzoxaborole]	freely soluble	–	–

SMILES	Solubility in water	Solubility in propylene glycol (propylene glycol)	Solubility in ethanol	Solubility in methanol (methanol)	Solubility in methylene chloride (methylene chloride)
CN(C/C=C/C#CC(C)(C)C)Cc1cccc2ccccc12.Cl [Terbinafine hydrochloride, (E)-N-(6,6-dimethyl-2-hepten-4-ynyl)-N-methyl-1-naphthalenemethanamine hydrochloride]	slightly soluble	–	soluble	freely soluble	freely soluble
